Assay results: ChEMBL document CHEMBL1128455, “Ribose-modified adenosine analogues as potential partial agonists for the adenosine receptor” (J Med Chem, 1995)

Experiments:
Adenosine receptor A2a = Adenosine receptor A2a (Rattus norvegicus, UniProt P30543); experiment: Binding affinity against Adenosine A2A receptor by using [3H]CGS-21680 as radioligand
Adenosine receptor A1 [1] = biological target: T1, Adenosine receptor A1 (Rattus norvegicus, UniProt P25099)
T1 sequence (P25099 whole entry): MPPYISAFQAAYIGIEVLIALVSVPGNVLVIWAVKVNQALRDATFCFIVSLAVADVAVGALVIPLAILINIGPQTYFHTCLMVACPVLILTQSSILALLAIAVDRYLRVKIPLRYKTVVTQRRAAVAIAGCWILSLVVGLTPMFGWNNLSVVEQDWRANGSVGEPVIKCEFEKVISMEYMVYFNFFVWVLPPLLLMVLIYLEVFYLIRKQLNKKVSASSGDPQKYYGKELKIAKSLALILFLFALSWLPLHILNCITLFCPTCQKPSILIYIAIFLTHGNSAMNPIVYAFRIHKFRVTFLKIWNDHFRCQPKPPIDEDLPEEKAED
Description: Affinity for the Adenosine A1 receptor in the absence of GTP (A1-GTP) by using [3H]DPCPX as radioligand

Rattus norvegicus = organism: Rattus norvegicus; experiment: GTP shift was determined in rat; assay type: functional
Adenosine receptor A1 [2] = biological target: T1, Adenosine receptor A1; remark: listed apart in the source
Description: Affinity for the Adenosine A1 receptor in the presence of GTP (A1+GTP) by using [3H]-DPCPX as radioligand

Sequence of Adenosine receptor A2a (P30543 whole entry): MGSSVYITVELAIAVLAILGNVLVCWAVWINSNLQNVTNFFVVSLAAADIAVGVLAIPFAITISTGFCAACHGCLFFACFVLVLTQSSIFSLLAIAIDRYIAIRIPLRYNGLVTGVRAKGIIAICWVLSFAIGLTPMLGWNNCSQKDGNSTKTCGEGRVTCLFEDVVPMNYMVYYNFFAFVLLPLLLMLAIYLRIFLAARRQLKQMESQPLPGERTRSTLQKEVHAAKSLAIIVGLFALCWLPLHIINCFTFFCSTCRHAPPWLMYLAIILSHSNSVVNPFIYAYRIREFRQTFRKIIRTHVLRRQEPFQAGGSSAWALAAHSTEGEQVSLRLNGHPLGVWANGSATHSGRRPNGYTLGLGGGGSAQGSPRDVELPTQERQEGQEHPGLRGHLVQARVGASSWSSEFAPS

| Compound | Ki (Adenosine receptor A2a) [µM] | Ki (Adenosine receptor A1 [1]) [µM] | % radioligand bound (Adenosine receptor A2a) [%] | GTP shift (Rattus norvegicus) | Ki (Adenosine receptor A1 [2]) [µM] |
| --- | --- | --- | --- | --- | --- |
| OC[C@H]1O[C@@H](n2cnc3c(NC4CCCC4)ncnc32)[C@H](O)[C@@H]1O [N6-CYCLOPENTYLADENOSINE] | 0.58 |  |  |  |  |
| OC[C@H]1O[C@@H](n2cnc3c(NC4CCCCC4)ncnc32)C[C@@H]1O |  | 8.94 | 90 | 2.6 | 22.8 |
| C[C@H]1OC(n2cnc3c(NC4CCCC4)ncnc32)[C@H](O)[C@@H]1O (stereo partly specified) | 10.1 | 0.07 |  | 6.4 | 0.45 |
| C[C@@H](Cc1ccccc1)Nc1ncnc2c1ncn2[C@@H]1O[C@H](CO)C[C@H]1O | 57.2 | 8.26 |  | 2.1 | 17.5 |
| C[C@H]1O[C@@H](n2cnc3c(N)ncnc32)[C@H](O)[C@@H]1O [5'-Deoxyadenosine] |  | 1.82 |  | 6.6 | 12.1 |
| C[C@H](Cc1ccccc1)Nc1ncnc2c1ncn2C1CC(O)C(CO)O1 (stereo partly specified) |  | 8.45 | 86 | 1.7 | 14.4 |
| Cn1cnc2c(N)ncnc21 | 8.6 | 12.5 |  | 1.2 | 14.7 |
| C[C@@H](Cc1ccccc1)Nc1ncnc2c1ncn2C1CC(O)C(CO)O1 (stereo partly specified) |  |  | 91 |  |  |
| OC[C@@H]1C[C@@H](O)[C@H](n2cnc3c(NC4CCCCC4)ncnc32)O1 | 22.1 | 0.31 |  | 4.1 | 1.26 |
| OC[C@H]1O[C@@H](n2cnc3c(NC4CCCC4)ncnc32)C[C@@H]1O |  | 1.87 | 88 | 4.1 | 7.6 |
| OC[C@@H]1C[C@@H](O)[C@H](n2cnc3c(NC4CCCC4)ncnc32)O1 | 18.6 | 0.11 |  | 4.3 | 0.47 |
| C[C@H](Cc1ccccc1)Nc1ncnc2c1ncn2[C@@H]1O[C@H](CO)C[C@H]1O | 7.36 | 0.35 |  | 2.9 | 1.01 |
| Nc1ncnc2c1ncn2[C@@H]1O[C@H](CO)C[C@H]1O [CORDYCEPIN] |  |  |  | 2.1 |  |
| C[C@H](Cc1ccccc1)Nc1ncnc2c1ncn2C1O[C@H](C)[C@@H](O)[C@H]1O (stereo partly specified) | 3.67 | 0.3 |  | 3.6 | 1.07 |
